Reference: patent US10143711B2, “Pathways to generate hair cells” (Massachusetts Eye & Ear Infirmary, priority 2008, dated 2018)

Experiments:
[1] = test system: Atoh1 and β-catenin; assay: β-catenin and Atoh1 expression in bone marrow derived MSCs on Notch inhibition and β-catenin activation; assay type: cell-based, human
Description: Notch signaling was inhibited using a γ-secretase inhibitor (DAPT) and β-catenin was activated using a GSK3β inhibitor (GSKi). […] Altered Notch activity was confirmed using CBF-1 luciferase reporter.
Mesenchymal stem cells (MSCs) were isolated from human bone marrow using the methods described by Jeon et al. (Mol. Cell. Neurosci., 34(1):59-68, (2007)). Cells were expanded once before use and cultured in MEM-α cell culture media (Sigma-Aldrich) supplemented with 9% horse serum, 9% fetal calf serum, and penicillin (100 U/mL) and streptomycin (100 μg/mL).

[2] = test system: Atoh1; assay: Gene silencing with siRNA in neural progenitor cells and Neuro2a (RT-PCR); assay type: cell-based, mouse; conditions: 200 nM siRNA; for decrease of Atoh1 expression: harvested after 48 hours, neural progenitor cells and Neuro2a
Procedure: The data shown in Examples 1-3 was corroborated using gene silencing. Briefly, siRNA were designed to silence Atoh1 (NM 007500.4, NM 005172.1) and β-catenin (NM_007614.2 and NM_001904.3), as shown below: Atoh1:
200 nM of each siRNA were transfected using the GeneSilencer™ transfection reagent at 5 μL/mL. Cells were incubated in the presence of the transfection mix for 16 hours and were harvested following a total of 48 hours. Non-targetting siRNA was used as control. Gene silencing was confirmed using RT-PCR. Cells were also transfected with Atoh1, β-catenin, or GFP using the methods described above.

Compound	β-catenin expression ([1]; human bone marrow MSCs, DAPT used at 10 μM and 50 μM)	decrease of Atoh1 expression [2]	Atoh1 expression ([1]; MSCs with γ-secretase treatment and siRNA suppression of β-catenin)	β-catenin expression levels ([2]; all cell types tested)
C[C@H](NC(=O)Cc1cc(F)cc(F)c1)C(=O)N[C@H](C(=O)OC(C)(C)C)c1ccccc1 [γ-secretase inhibitor, N—[N-(3,5-difluorophenacetyl)-L-alanyl]-(S)-phenylglycine t-butyl ester]	increased			
Atoh1 siRNA: siRNA designed to silence Atoh1, SEQ ID NO:16 (GCAACGUUAUCCCGUCCUUUAACAGCGAUGAUGGCACA; listed as RNA, chemistry not given here)		about 45%		
β-catenin siRNA: siRNA designed to silence β-catenin, SEQ ID NO:17 (GCGCUUGGCUGAACCAUCAUUGUGAAAUUCUUGGCUAUUAUU; listed as RNA, chemistry not given here)		about 40%	reduced	suppressed
